{"source": "patent US12383539B2", "about": "(Cavion, Inc., priority 2018, dated 2025)", "key": {"[1]": {"test_system": "patients with essential tremor", "assay": "T-CALM: TETRAS total score", "type": "in vivo, human", "description": "The Total TETRAS score was defined as the sum of the TETRAS performance subscale total score and the TETRAS ADL subscale score. TETRAS TOTAL score combines both patient reported outcome and objective measurement of tremor amplitude in a single score. Analyses of the TETRAS-ADL was conducted using the same type of ANCOVA model as described for the TETRAS-PS, using two-sided tests at the alpha=0.05 level of significance (FIG. 3 and Table 3)."}, "[2]": {"test_system": "patients with essential tremor", "assay": "T-CALM: Clinical Global Impression of Improvement (CGI-I)", "type": "in vivo, human", "excerpt": "The Clinical Global Impressions Scale (CGI) was developed for use in NIMH-sponsored clinical trials to provide a brief, stand-alone assessment of the clinician's view of a patient's global functioning before and after initiating a study medication (Guy (ed.), ECDEU Assessment Manual for Psychopharmacology. Rockville, MD: US Department of Health, Education, and Welfare Public Health Service Alcohol, Drug Abuse, and Mental Health Administration; 1976). The CGI is a summary measure that takes into account all available information, including knowledge of the patient's history, psychosocial circumstances, symptoms, behavior, and the impact of the symptoms on the patient's ability to function. The CGI has two forms—the CGI-Severity, which rates illness severity at baseline, and the CGI-Improvement, which rates change from baseline.\nThe CGI-I consists of a single 7-point rating of total improvement or change from baseline CGI-S, regardless of whether or not the change is due entirely to drug treatment.\nTreatment success as measured by CGI-I was summarized using descriptive statistics.\nThe Clinical Global Impressions Scale (CGI) generates a clinician's perception of a patient's functioning prior to and after study medication (see, e.g., Guy, Assessment Manual for Psychopharmacology. Rockville, MD: Department of Health, Education, and Welfare Public Health Service Alcohol, Drug Abuse, and Mental Health Administration, 1976). The CGI overall score considers patient history, psychosocial situations, symptoms and behavior with respect to the ability to function. The CGI-Improvement (CGI-I) will involve a single 7-point rating of total improvement or change from baseline CGI-Severity (CGI-S)."}}}
{"compound": "CC(C)c1ccc(CC(=O)N[C@H](C)c2ccc(OCC(F)(F)F)cn2)cc1", "note": "[CX-8998]", "values": [{"measurement": "responders: improvement of at least 5 points by TETRAS Total score, %", "setting": "[1]; Day 15", "value": "(56.4%)"}, {"measurement": "responders: improvement of at least 5 points by TETRAS Total score, number", "setting": "[1]; Day 15, N 39", "value": 22}, {"measurement": "TETRAS Total change from baseline 0 change: subjects, number (%)", "setting": "[1]; Day 15, N = 39", "value": "1 (2.6%)"}, {"measurement": "TETRAS Total change from baseline >0 to 1 point improvement: subjects, number (%)", "setting": "[1]; Day 15, N = 39", "value": "2 (5.1%)"}, {"measurement": "TETRAS Total change from baseline >0 to 1 point worsening: subjects, number (%)", "setting": "[1]; Day 15, N = 39", "value": "2 (5.1%)"}, {"measurement": "TETRAS Total change from baseline >1 to 2.5 point improvement: subjects, number (%)", "setting": "[1]; Day 15, N = 39", "value": "2 (5.1%)"}, {"measurement": "TETRAS Total change from baseline >1 to 2.5 point worsening: subjects, number (%)", "setting": "[1]; Day 15, N = 39", "value": "1 (2.6%)"}, {"measurement": "TETRAS Total change from baseline >2.5 to 5 point improvement: subjects, number (%)", "setting": "[1]; Day 15, N = 39", "value": "7 (17.9%)"}, {"measurement": "TETRAS Total change from baseline >2.5 to 5 point worsening: subjects, number (%)", "setting": "[1]; Day 15, N = 39", "value": "4 (10.3%)"}, {"measurement": "TETRAS Total change from baseline >5 to 10 point improvement: subjects, number (%)", "setting": "[1]; Day 15, N = 39", "value": "6 (15.4%)"}, {"measurement": "TETRAS Total change from baseline >5 to 10 point worsening: subjects, number (%)", "setting": "[1]; Day 15, N = 39", "value": 0}, {"measurement": "TETRAS Total change from baseline >10 to 20 point improvement: subjects, number (%)", "setting": "[1]; Day 15, N = 39", "value": "12 (30.8%)"}, {"measurement": "TETRAS Total change from baseline >20 point improvement: subjects, number (%)", "setting": "[1]; Day 15, N = 39", "value": "2 (5.1%)"}, {"measurement": "TETRAS Total change from baseline >point worsening: subjects, number (%)", "setting": "[1]; Day 15, N = 39", "value": 0}, {"measurement": "total TETRAS score with TETRAS-PS rated by independent video raters, vs placebo", "setting": "[1]; Day 15 and Day 28", "value": "trended toward improvement for the CX-8998 group but was not statistically significant"}, {"measurement": "responders: improvement of at least 5 points by TETRAS Total score, %", "setting": "[1]; Day 28", "value": "(56.8%)"}, {"measurement": "responders: improvement of at least 5 points by TETRAS Total score, number", "setting": "[1]; Day 28, N 37", "value": 21}, {"measurement": "TETRAS Total change from baseline 0 change: subjects, number (%)", "setting": "[1]; Day 28, N = 37", "value": 0}, {"measurement": "TETRAS Total change from baseline >0 to 1 point improvement: subjects, number (%)", "setting": "[1]; Day 28, N = 37", "value": "2 (5.4%)"}, {"measurement": "TETRAS Total change from baseline >0 to 1 point worsening: subjects, number (%)", "setting": "[1]; Day 28, N = 37", "value": "4 (10.8%)"}, {"measurement": "TETRAS Total change from baseline >1 to 2.5 point improvement: subjects, number (%)", "setting": "[1]; Day 28, N = 37", "value": "2 (5.4%)"}, {"measurement": "TETRAS Total change from baseline >1 to 2.5 point worsening: subjects, number (%)", "setting": "[1]; Day 28, N = 37", "value": "2 (5.4%)"}, {"measurement": "TETRAS Total change from baseline >2.5 to 5 point improvement: subjects, number (%)", "setting": "[1]; Day 28, N = 37", "value": "5 (13.5%)"}, {"measurement": "TETRAS Total change from baseline >2.5 to 5 point worsening: subjects, number (%)", "setting": "[1]; Day 28, N = 37", "value": "1 (2.7%)"}, {"measurement": "TETRAS Total change from baseline >5 to 10 point improvement: subjects, number (%)", "setting": "[1]; Day 28, N = 37", "value": "7 (18.9%)"}, {"measurement": "TETRAS Total change from baseline >5 to 10 point worsening: subjects, number (%)", "setting": "[1]; Day 28, N = 37", "value": 0}, {"measurement": "TETRAS Total change from baseline >10 point worsening: subjects, number (%)", "setting": "[1]; Day 28, N = 37", "value": 0}, {"measurement": "TETRAS Total change from baseline >10 to 20 point improvement: subjects, number (%)", "setting": "[1]; Day 28, N = 37", "value": "8 (21.6%)"}, {"measurement": "TETRAS Total change from baseline >20 point improvement: subjects, number (%)", "setting": "[1]; Day 28, N = 37", "value": "5 (13.5%)"}, {"measurement": "CGI-I score 0-no change: subjects, number (%)", "setting": "[2]; Day 15", "value": "14 (36%)"}, {"measurement": "CGI-I score 1-minimally improved: subjects, number (%)", "setting": "[2]; Day 15", "value": "19 (49%)"}, {"measurement": "CGI-I score 2-much improved: subjects, number (%)", "setting": "[2]; Day 15", "value": "6 (15%)"}, {"measurement": "CGI-I score 3-very much improved: subjects, number (%)", "setting": "[2]; Day 15", "value": 0}, {"measurement": "CGI-I score −1-minimally worse: subjects, number (%)", "setting": "[2]; Day 15", "value": 0}, {"measurement": "CGI-I score −2-much worse: subjects, number (%)", "setting": "[2]; Day 15", "value": 0}, {"measurement": "CGI-I score −3-very much worse: subjects, number (%)", "setting": "[2]; Day 15", "value": 0}, {"measurement": "responders: improvement by CGI-I, %", "setting": "[2]; Day 15", "value": "(64.1%)"}, {"measurement": "CGI-I category 0 No change, number (%) of patients", "setting": "[2]; Day 15, N = 39", "value": "14 (36%)"}, {"measurement": "CGI-I category 1 Minimally improved, number (%) of patients", "setting": "[2]; Day 15, N = 39", "value": "19 (49%)"}, {"measurement": "CGI-I category 2 Much improved, number (%) of patients", "setting": "[2]; Day 15, N = 39", "value": "6 (15%)"}, {"measurement": "CGI-I category 3 Very much improved, number (%) of patients", "setting": "[2]; Day 15, N = 39", "value": 0}, {"measurement": "CGI-I category −1 Minimally worse, number (%) of patients", "setting": "[2]; Day 15, N = 39", "value": 0}, {"measurement": "CGI-I category −2 Much worse, number (%) of patients", "setting": "[2]; Day 15, N = 39", "value": 0}, {"measurement": "CGI-I category −3 Very much worse, number (%) of patients", "setting": "[2]; Day 15, N = 39", "value": 0}, {"measurement": "CGI-I score 0-no change: subjects, number (%)", "setting": "[2]; Day 28", "value": "13 (33%)"}, {"measurement": "CGI-I score 1-minimally improved: subjects, number (%)", "setting": "[2]; Day 28", "value": "15 (38%)"}, {"measurement": "CGI-I score 2-much improved: subjects, number (%)", "setting": "[2]; Day 28", "value": "9 (23%)"}, {"measurement": "CGI-I score 3-very much improved: subjects, number (%)", "setting": "[2]; Day 28", "value": 0}, {"measurement": "CGI-I score (rescaled −3 to 3), Mean (SD)", "setting": "[2]; Day 28", "value": "1 (0.8)"}, {"measurement": "CGI-I score (rescaled −3 to 3), Median (minimum, maximum)", "setting": "[2]; Day 28", "value": "1 (0, 2)"}, {"measurement": "CGI-I score −1-minimally worse: subjects, number (%)", "setting": "[2]; Day 28", "value": 0}, {"measurement": "CGI-I score −2-much worse: subjects, number (%)", "setting": "[2]; Day 28", "value": 0}, {"measurement": "CGI-I score −3-very much worse: subjects, number (%)", "setting": "[2]; Day 28", "value": 0}, {"measurement": "responders: improvement by CGI-I, %", "setting": "[2]; Day 28", "value": "(64.9%)"}, {"measurement": "CGI-I: No Change, number of subjects", "setting": "[2]; Day 28, total 37", "value": 13}, {"measurement": "CGI-I: Worsened, number of subjects", "setting": "[2]; Day 28, total 37", "value": 0}, {"measurement": "CGI-I score, LS mean (SE)", "setting": "[2]; Day 28, ANCOVA", "value": "1.0 (0.13)"}, {"measurement": "CGI-I score, LS mean difference from placebo (95% CI)", "setting": "[2]; Day 28, ANCOVA", "value": "0.6 (0.3, 0.9)"}, {"measurement": "CGI-I category 0 No change, number (%) of patients", "setting": "[2]; Day 28, N = 39", "value": "13 (33%)"}, {"measurement": "CGI-I category 1 Minimally improved, number (%) of patients", "setting": "[2]; Day 28, N = 39", "value": "15 (38%)"}]}
